Assay results taken from PMC7006622 (2019).

Assays:
[1] = test system: TWJ molecular switch for 17β-estradiol (B5/G14 split aptamer, with FP1 and CP1) (DNA, aptamer) TAGGGTGCGGCTCTGCGCATTCAATTGCTGCGCGCTGAAGCGCGGAAGCCCGTACTCTATGAGCCTCTG/GCTTCCAGCTTATTGAATTACACGCAGAGGGTACCGTGT/AAACACGGATCCCATA; experiment: single-molecule TIRF, fluorescent probe binding kinetics; conditions: 1× PBS; apparent; read from calibration curve of probe kon,F and koff,F against Kd; oxygen scavenger system; surface-immobilised DNA
[2] = test system: TWJ molecular switch for ATP (B3/G12 split aptamer, with FP1 and CP1) (DNA, aptamer) TGGGATTGGAAGGAGGCGTCCGTACTCTATGAGCCTCTG/TATGAGGGGGTCCACCGTGT/AAACACGGATCCCATA; experiment: single-molecule TIRF, transient binding of fluorescent probe; conditions: 1× PBS; qualitative; oxygen scavenger system; surface-immobilised DNA

| Kd [1] [nM] | binding [2] | SMILES |
| --- | --- | --- |
| 18 | – | C[C@]12CC[C@@H]3c4ccc(O)cc4CC[C@H]3[C@@H]1CC[C@@H]2O |
| – | yes | Nc1ncnc2c1ncn2[C@@H]1O[C@H](COP(=O)(O)OP(=O)(O)OP(=O)(O)O)[C@@H](O)[C@H]1O |
